Experimental data published in patent publication US11925629B2, “Heterocyclic inhibitors of ERK1 and ERK2 and their use in the treatment of cancer” (Asana Biosciences, LLC, priority 2015, dated 2024).

Experiments:
[1] = tested on: HT-29 (colorectal carcinoma, B-RafV600E) cells; test: Cell proliferation (Alamar Blue) assay, HT-29; assay type: cell-based, human
Description: (§1) Cell Proliferation (Alamar Blue) Assay
(§2) HT-29 (colorectal carcinoma, B-RafV600E), HCT116 (colorectal carcinoma, K Ras G13D), A375 (melanoma, B-RafV600E) and SK-Mel2 (melanoma, NRAS Q61R) cells (obtained from ATCC, USA) were seeded (5000 cells/well) in 96-well tissue culture plate and incubated at 37° C./5% CO2 for 16-24 hours. The cells were then treated with compounds, at concentrations typically from 0.0005 to 10 uM prepared in 3-fold serial dilutions. The plates were then incubated for 72 h at 37° C./5% CO2 in a moist environment. Then Alamar Blue™ reagent (final concentration 1×) was added to each well and incubated for 1-3 h at 37° C./5% CO2. The plates were read on fluorescence reader at 540 nm excitation and 590 nm emission wavelengths. The IC50 values were subsequently determined using a sigmoidal dose-response curve (variable slope) using GraphPad Prism® 5 software.

[2] = tested on: HCT116 (colorectal carcinoma, K Ras G13D) cells; test: Cell proliferation (Alamar Blue) assay, HCT116; assay type: cell-based, human
Description: as §1, §2

[3] = Homo sapiens, HT-29, HT29 cells
[4] = Homo sapiens, HCT-116, HCT116 cells

Row | Structure (SMILES) | IC50 [1, 3] [µM] | IC50 [2, 4] [µM] | IC50 ([1]; HT29 cells) [µM] | IC50 ([2]; HCT116 cells) [µM]
1 | Cc1cnc(Nc2ccc(F)cc2Cl)nc1-n1ccc(C(=O)N[C@H](CO)c2cccc(Cl)c2)c1 [Example 57, (S)-1-(2-((2-chloro-4-fluorophenyl)-amino)-5-methyl-pyrimidin-4-yl)-N-(1-(3-chlorophenyl)-2-hydroxy-ethyl)-1H-pyrrole-3-carboxamide] |  |  | > 2.5 | > 2.5
2 | Cc1cnc(Nc2ccc(N3CCNCC3)cc2)cc1-n1ccc(C(=O)NC(CO)c2ccccc2)c1 (centres unmarked) [Example 83, N-(2-hydroxy-1-phenylethyl)-1-(5-methyl-2-((4-(piperazin-1-yl)-phenyl)amino)-pyridin-4-yl)-1H-pyrrole-3-carboxamide] | > 2.5 | > 2.5 |  | 
3 | O=C(NC(CO)c1ccccc1)c1ccn(-c2ccnc(Nc3ccc(F)cc3)c2)c1 (centres unmarked) [Example 84, 1-(2-((4-fluoro-phenyl)amino)pyridin-4-yl)-N-(2-hydroxy-1-phenyl-ethyl)-1H-pyrrole-3-carboxamide] | > 2.5 | > 2.5 |  | 
4 | Cc1cnc(Nc2ccc(F)cc2Cl)cc1-n1cnc(C(=O)NC(CO)c2ccccc2)c1 (centres unmarked) [Example 85, 1-(2-((2-chloro-4-fluorophenyl)amino)-5-methyl-pyridin-4-yl)-N-(2-hydroxy-1-phenylethyl)-1H-imidazole-4-carboxamide] | > 2.5 | > 2.5 |  | 
5 | Cc1cnc(Nc2ccc3c(c2)OCO3)cc1-n1cnc(C(=O)NC(CO)c2cccc(Cl)c2)c1 (centres unmarked) [Example 88, 1-(2-(benzo[d][1,3]dioxol-5-ylamino)-5-methyl-pyridin-4-yl)-N-(1-(3-chloro-phenyl)-2-hydroxy-ethyl)-1H-imidazole-4-carboxamide] | > 2.5 | > 2.5 |  | 
6 | Cc1cnc(Nc2ccccc2)cc1-n1cnc(C(=O)NC(CO)c2ccccc2)c1 (centres unmarked) [Example 89, N-(2-hydroxy-1-phenylethyl)-1-(5-methyl-2-(phenyl-amino)pyridin-4-yl)-1H-imidazole-4-carboxamide] | > 2.5 | > 2.5 |  | 
7 | Cc1cnc(Nc2ccc3c(c2)OC(F)(F)O3)cc1-n1cnc(C(=O)NC(CO)c2cccc(Cl)c2)c1 (centres unmarked) [Example 90, N-(1-(3-chlorophenyl)-2-hydroxy-ethyl)-1-(2-((2,2-difluoro-benzo[d][1,3]dioxol-5-yl)amino)-5-methyl-pyridin-4-yl)-1H-imidazole-4-carboxamide] | > 2.5 | > 2.5 |  | 
8 | Cc1cnc(Nc2ccc(F)cc2Cl)nc1-n1ccc(C(=O)N[C@@H](CN(C)C)c2ccccc2)c1 [Example 97, (R)-1-(2-((2-chloro-4-fluorophenyl)amino)-5-methyl-pyrimidin-4-yl)-N-(2-(dimethyl-amino)-1-phenylethyl)-1H-pyrrole-3-carboxamide] | > 2.5 | > 2.5 |  | 
9 | Cc1cnc(Nc2ccc3c(c2)OC(F)(F)O3)cc1-n1cnc(C(=O)NC(CN)Cc2ccccc2)c1 (centres unmarked) [Example 99, N-(1-amino-3-phenyl-propan-2-yl)-1-(2-((2,2-difluoro-benzo[d][1,3]dioxol-5-yl)amino)-5-methyl-pyridin-4-yl)-1H-imidazole-4-carboxamide] | > 2.5 | > 2.5 |  | 
10 | Cc1cnc(Nc2ccc3c(c2)OCO3)nc1-n1ccc(C(=O)NC(CO)c2cccnc2)c1 (centres unmarked) [Example 103, 1-(2-(benzo[d][1,3]dioxol-5-ylamino)-5-methyl-pyrimidin-4-yl)-N-(2-hydroxy-1-(pyridin-3-yl)ethyl)-1H-pyrrole-3-carboxamide] | > 2.5 | > 2.5 |  | 
11 | Cc1cnc(Nc2ccc3ocnc3c2)nc1-n1ccc(C(=O)NC(CO)c2ccccc2)c1 (centres unmarked) [Example 104, 1-(2-(benzo[d]oxazol-5-ylamino)-5-methyl-pyrimidin-4-yl)-N-(2-hydroxy-1-phenylethyl)-1H-pyrrole-3-carboxamide] | > 2.5 | > 2.5 |  | 
12 | Cc1cn(-c2nc(Nc3ccc(F)cc3)ncc2C)cc1C(=O)NC(CO)c1ccccc1 (centres unmarked) [Example 108, 1-(2-((4-fluoro-phenyl)amino)-5-methyl-pyrimidin-4-yl)-N-(2-hydroxy-1-phenylethyl)-4-methyl-1H-pyrrole-3-carboxamide] | > 2.5 | > 2.5 |  | 

The remaining lines, values ahead:

Row | IC50 [1, 3] [µM] | IC50 [2, 4] [µM] | IC50 ([1]; HT29 cells) [µM] | IC50 ([2]; HCT116 cells) [µM] | Structure (SMILES)
13 | > 2.5 | > 2.5 |  |  | O=C(Nc1cnn(-c2ccnc(Nc3ccccc3)c2)c1)N[C@@H](CO)c1cccc(Cl)c1 [Example 49, (R)-1-(1-(3-chloro-phenyl)-2-hydroxy-ethyl)-3-(1-(2-(phenylamino)pyridin-4-yl)-1H-pyrazol-4-yl)urea]
14 | > 2.5 | > 2.5 |  |  | Cc1cnc(Nc2ccc3c(c2)OCO3)nc1-n1cc(C(=O)N[C@H](CO)c2cccc(Cl)c2)cn1 [Example 50, (S)-1-(2-(benzo[d][1,3]dioxol-5-ylamino)-5-methyl-pyrimidin-4-yl)-N-(1-(3-chloro-phenyl)-2-hydroxy-ethyl)-1H-pyrazole-4-carboxamide]
15 | > 2.5 | > 2.5 |  |  | Cc1cnc(Nc2ccc3c(c2)OCO3)nc1-n1cc(NC(=O)N[C@@H](CO)c2cccc(Cl)c2)cn1 [Example 51, (R)-1-(1-(2-(benzo[d][1,3]dioxol-5-ylamino)-5-methyl-pyrimidin-4-yl)-1H-pyrazol-4-yl)-3-(1-(3-chloro-phenyl)-2-hydroxy-ethyl)urea]
16 | > 2.5 | > 2.5 |  |  | Cc1cnc(Nc2ccc(F)cc2Cl)nc1-n1cc(C(=O)NC(CN)c2ccccc2)cn1 (centres unmarked) [Example 54, N-(2-amino-1-phenylethyl)-1-(2-((2-chloro-4-fluoro-phenyl)amino)-5-methyl-pyrimidin-4-yl)-1H-pyrazole-4-carboxamide]
17 | > 2.5 | > 2.5 |  |  | Cc1cnc(Nc2ccc(F)cc2Cl)cc1-n1ccc(C(=O)NC(CO)c2ccccc2)c1 (centres unmarked) [Example 78, 1-(2-((2-chloro-4-fluorophenyl)amino)-5-methyl-pyridin-4-yl)-N-(2-hydroxy-1-phenylethyl)-1H-pyrrole-3-carboxamide]
18 | > 2.5 | > 2.5 |  |  | Cc1cnc(Nc2ccc3occc3c2)cc1-n1ccc(C(=O)NC(CO)c2ccccc2)c1 (centres unmarked) [Example 79, 1-(2-(benzo-furan-5-ylamino)-5-methyl-pyridin-4-yl)-N-(2-hydroxy-1-phenylethyl)-1H-pyrrole-3-carboxamide]
19 | > 2.5 | > 2.5 |  |  | Cc1cnc(Nc2cccnc2)cc1-n1ccc(C(=O)NC(CO)c2ccccc2)c1 (centres unmarked) [Example 81, N-(2-hydroxy-1-phenylethyl)-1-(5-methyl-2-(pyridin-3-ylamino)pyridin-4-yl)-1H-pyrrole-3-carboxamide]
20 | > 2.5 | > 2.5 |  |  | O=C(NC(CO)c1ccccc1)c1ccn(-c2ccnc(Nc3ccc(F)cc3Cl)c2)c1 (centres unmarked) [Example 82, 1-(2-((2-chloro-4-fluorophenyl)amino)pyridin-4-yl)-N-(2-hydroxy-1-phenylethyl)-1H-pyrrole-3-carboxamide]
21 | 0.5 to 2.5 | > 2.5 |  |  | Cc1cnc(Nc2ccc3c(c2)OC(F)(F)O3)cc1-n1ccc(C(=O)NC(CO)c2cccc(Cl)c2)c1 (centres unmarked) [Example 92, N-(1-(3-chlorophenyl)-2-hydroxy-ethyl)-1-(2-((2,2-difluoro-benzo[d][1,3]dioxol-5-yl)amino)-5-methyl-pyridin-4-yl)-1H-pyrrole-3-carboxamide]
22 | 0.5 to 2.5 | > 2.5 |  |  | Cc1cnc(Nc2cc3c(cc2Cl)OCO3)nc1-n1ccc(C(=O)NC(CO)c2cccc(Cl)c2)c1 (centres unmarked) [Example 101, 1-(2-((6-chloro-benzo[d][1,3]dioxol-5-yl)amino)-5-methyl-pyrimidin-4-yl)-N-(1-(3-chlorophenyl)-2-hydroxy-ethyl)-1H-pyrrole-3-carboxamide]
